In brackets after ≈: the same amount, converted by molar mass. Activity calls are given as the source filed them. The rule behind the calls is not given here.
Tests used:
Nakaseomyces glabratus [1] = assay: Fungicidal activity against Candida glabrata MTCC 3019 incubated for 24 hrs followed by transfer of microbial suspension to Sabouraud dextrose agar plates and measured after 24 hrs post transfer; format: functional; conditions: MTCC 3019, 24 h
Candida albicans [2] = assay: Fungicidal activity against Candida albicans MTCC 7315 incubated for 24 hrs followed by transfer of microbial suspension to Sabouraud dextrose agar plates and measured after 24 hrs post transfer; format: functional; conditions: MTCC 7315, 24 h
Candida albicans [3] = assay: Fungicidal activity against Candida albicans MTCC 854 incubated for 24 hrs followed by transfer of microbial suspension to Sabouraud dextrose agar plates and measured after 24 hrs post transfer; format: functional
Staphylococcus aureus [4] = assay: Antibacterial activity against Staphylococcus aureus MTCC 96 after 24 hrs by well diffusion method; format: functional
Candida albicans [5] = assay: Fungicidal activity against Candida albicans MTCC 1637 incubated for 24 hrs followed by transfer of microbial suspension to Sabouraud dextrose agar plates and measured after 24 hrs post transfer; format: functional
Candida albicans [6] = assay: Antifungal activity against Candida albicans MTCC 7315 after 24 hrs by well diffusion method; format: functional; conditions: MTCC 7315, 24 h
Candida albicans [7] = assay: Fungicidal activity against Candida albicans MTCC 183 incubated for 24 hrs followed by transfer of microbial suspension to Sabouraud dextrose agar plates and measured after 24 hrs post transfer; format: functional; conditions: MTCC 183, 24 h
Staphylococcus aureus [8] = assay: Antibacterial activity against Staphylococcus aureus MLS16 MTCC 2940 after 24 hrs by well diffusion method; format: functional
Pichia sporocuriosa [9] = assay: Antifungal activity against Issatchenkia hanoiensis MTCC 4755 after 24 hrs by well diffusion method; format: functional; conditions: MTCC 4755, 24 h
Candida parapsilosis [10] = assay: Fungicidal activity against Candida parapsilosis MTCC 1744 incubated for 24 hrs followed by transfer of microbial suspension to Sabouraud dextrose agar plates and measured after 24 hrs post transfer; format: functional; conditions: Lodderomyces parapsilosis, MTCC 1744, 24 h
Candida albicans [11] = assay: Fungicidal activity against Candida albicans MTCC 4748 incubated for 24 hrs followed by transfer of microbial suspension to Sabouraud dextrose agar plates and measured after 24 hrs post transfer; format: functional; conditions: MTCC 4748, 24 h
Nakaseomyces glabratus [12] = assay: Antifungal activity against Candida glabrata MTCC 3019 after 24 hrs by well diffusion method; format: functional; conditions: MTCC 3019, 24 h
Candida albicans [13] = assay: Antifungal activity against Candida albicans MTCC 3017 after 24 hrs by well diffusion method; format: functional; conditions: MTCC 3017, 24 h
Candida albicans [14] = assay: Fungicidal activity against Candida albicans MTCC 3018 incubated for 24 hrs followed by transfer of microbial suspension to Sabouraud dextrose agar plates and measured after 24 hrs post transfer; format: functional
Candida albicans [15] = assay: Fungicidal activity against Candida albicans MTCC 227 incubated for 24 hrs followed by transfer of microbial suspension to Sabouraud dextrose agar plates and measured after 24 hrs post transfer; format: functional
Candida parapsilosis [16] = assay: Antifungal activity against Candida parapsilosis MTCC 1744 after 24 hrs by well diffusion method; format: functional; conditions: MTCC 1744, 24 h
Pichia kudriavzevii [17] = assay: Antifungal activity against Candida krusei MTCC 3020 after 24 hrs by well diffusion method; format: functional
Bacillus subtilis [18] = assay: Antibacterial activity against Bacillus subtilis MTCC 121 after 24 hrs by well diffusion method; format: functional
Pichia sporocuriosa [19] = assay: Fungicidal activity against Issatchenkia hanoiensis MTCC 4755 incubated for 24 hrs followed by transfer of microbial suspension to Sabouraud dextrose agar plates and measured after 24 hrs post transfer; format: functional; conditions: MTCC 4755, 24 h
Candida albicans [20] = assay: Antifungal activity against Candida albicans MTCC 3958 after 24 hrs by well diffusion method; format: functional
[Candida] aaseri [21] = Fungicidal activity against Candida aaseri MTCC 1962 incubated for 24 hrs followed by transfer of microbial suspension to Sabouraud dextrose agar plates and measured after 24 hrs post transfer; format: functional; conditions: Yamadazyma aaseri, MTCC 1962, 24 h
Candida albicans [22] = assay: Fungicidal activity against Candida albicans MTCC 3017 incubated for 24 hrs followed by transfer of microbial suspension to Sabouraud dextrose agar plates and measured after 24 hrs post transfer; format: functional; conditions: MTCC 3017, 24 h
Candida albicans [23] = assay: Antifungal activity against Candida albicans MTCC 1637 after 24 hrs by well diffusion method; format: functional
Candida albicans [24] = assay: Antifungal activity against Candida albicans MTCC 3018 after 24 hrs by well diffusion method; format: functional
Candida albicans [25] = assay: Antifungal activity against Candida albicans MTCC 4748 after 24 hrs by well diffusion method; format: functional; conditions: MTCC 4748, 24 h
Raoultella planticola [26] = assay: Antibacterial activity against Klebsiella planticola MTCC 530 after 24 hrs by well diffusion method; format: functional
Candida albicans [27] = assay: Antifungal activity against Candida albicans MTCC 854 after 24 hrs by well diffusion method; format: functional
Candida albicans [28] = assay: Fungicidal activity against Candida albicans MTCC 3958 incubated for 24 hrs followed by transfer of microbial suspension to Sabouraud dextrose agar plates and measured after 24 hrs post transfer; format: functional
Escherichia coli [29] = assay: Antibacterial activity against Escherichia coli MTCC 739 after 24 hrs by well diffusion method; format: functional
Micrococcus luteus [30] = assay: Antibacterial activity against Micrococcus luteus MTCC 2470 after 24 hrs by well diffusion method; format: functional
Candida albicans [31] = assay: Antifungal activity against Candida albicans MTCC 183 after 24 hrs by well diffusion method; format: functional; conditions: MTCC 183, 24 h
Pseudomonas aeruginosa [32] = assay: Antibacterial activity against Pseudomonas aeruginosa MTCC 2453 after 24 hrs by well diffusion method; format: functional
[Candida] aaseri [33] = Antifungal activity against Candida aaseri MTCC 1962 after 24 hrs by well diffusion method; format: functional; conditions: Yamadazyma aaseri, MTCC 1962, 24 h
Pichia kudriavzevii [34] = assay: Fungicidal activity against Candida krusei MTCC 3020 incubated for 24 hrs followed by transfer of microbial suspension to Sabouraud dextrose agar plates and measured after 24 hrs post transfer; format: functional
Candida albicans [35] = assay: Antifungal activity against Candida albicans MTCC 227 after 24 hrs by well diffusion method; format: functional
Bacillus subtilis [36] = assay: Antibiofilm activity against Bacillus subtilis MTCC 121 after 24 hrs by crystal violet staining-based assay; format: functional, organism-based
Micrococcus luteus [37] = assay: Bactericidal activity against Micrococcus luteus MTCC 2470 incubated for 24 hrs followed by transfer of microbial suspension to Mueller Hinton agar plates and measured after 24 hrs post transfer; format: functional
Raoultella planticola [38] = assay: Antibiofilm activity against Klebsiella planticola MTCC 530 after 24 hrs by crystal violet staining-based assay; format: functional, organism-based
Raoultella planticola [39] = assay: Bactericidal activity against Klebsiella planticola MTCC 530 incubated for 24 hrs followed by transfer of microbial suspension to Mueller Hinton agar plates and measured after 24 hrs post transfer; format: functional
Pseudomonas aeruginosa [40] = assay: Antibiofilm activity against Pseudomonas aeruginosa MTCC 2453 after 24 hrs by crystal violet staining-based assay; format: functional, organism-based
Staphylococcus aureus [41] = assay: Bactericidal activity against Staphylococcus aureus MTCC 96 incubated for 24 hrs followed by transfer of microbial suspension to Mueller Hinton agar plates and measured after 24 hrs post transfer; format: functional; conditions: MTCC 96, 24 h
Staphylococcus aureus [42] = assay: Antibiofilm activity against Staphylococcus aureus MTCC 96 after 24 hrs by crystal violet staining-based assay; format: functional, organism-based; conditions: Staphylococcus aureus, MTCC 96, 24 h; read-out: IC50
Pseudomonas aeruginosa [43] = assay: Bactericidal activity against Pseudomonas aeruginosa MTCC 2453 incubated for 24 hrs followed by transfer of microbial suspension to Mueller Hinton agar plates and measured after 24 hrs post transfer; format: functional
Staphylococcus aureus [44] = assay: Bactericidal activity against Staphylococcus aureus MLS16 MTCC 2940 incubated for 24 hrs followed by transfer of microbial suspension to Mueller Hinton agar plates and measured after 24 hrs post transfer; format: functional
Bacillus subtilis [45] = assay: Bactericidal activity against Bacillus subtilis MTCC 121 incubated for 24 hrs followed by transfer of microbial suspension to Mueller Hinton agar plates and measured after 24 hrs post transfer; format: functional
Escherichia coli [46] = assay: Bactericidal activity against Escherichia coli MTCC 739 incubated for 24 hrs followed by transfer of microbial suspension to Mueller Hinton agar plates and measured after 24 hrs post transfer; format: functional
Staphylococcus aureus [47] = assay: Antibiofilm activity against Staphylococcus aureus MLS16 MTCC 2940 after 24 hrs by crystal violet staining-based assay; format: functional, organism-based

SMILES: O=C(c1nc(-c2ccccc2)c2c(C(F)(F)F)cc(-c3ccccc3)nc2n1)N1CCCC1
- MFC (Nakaseomyces glabratus [1]): 31.2 mg/L (≈ 69.6 µM)
- MFC (Candida albicans [2]): 31.2 mg/L (≈ 69.6 µM)
- MFC (Candida albicans [3]; MTCC 854, 24 h): 15.6 mg/L (≈ 34.8 µM)
- MIC (Staphylococcus aureus [4]): inactive
- MFC (Candida albicans [5]; MTCC 1637, 24 h): 15.6 mg/L (≈ 34.8 µM)
- MIC (Candida albicans [6]): 15.6 mg/L (≈ 34.8 µM)
- MFC (Candida albicans [7]): 15.6 mg/L (≈ 34.8 µM)
- MIC (Staphylococcus aureus [8]): inactive
- MIC (Pichia sporocuriosa [9]): 31.2 mg/L (≈ 69.6 µM)
- MFC (Candida parapsilosis [10]): 15.6 mg/L (≈ 34.8 µM)
- MFC (Candida albicans [11]): 62.5 mg/L (≈ 139 µM)
- MIC (Nakaseomyces glabratus [12]): 31.2 mg/L (≈ 69.6 µM)
- MIC (Candida albicans [13]): 7.8 mg/L (≈ 17.4 µM)
- MFC (Candida albicans [14]; MTCC 3018, 24 h): 62.5 mg/L (≈ 139 µM)
- MFC (Candida albicans [15]; MTCC 227, 24 h): 31.2 mg/L (≈ 69.6 µM)
- MIC (Candida parapsilosis [16]): 15.6 mg/L (≈ 34.8 µM)
- MIC (Pichia kudriavzevii [17]): inactive
- MIC (Bacillus subtilis [18]): inactive
- MFC (Pichia sporocuriosa [19]): 62.5 mg/L (≈ 139 µM)
- MIC (Candida albicans [20]; MTCC 3958, 24 h): 31.2 mg/L (≈ 69.6 µM)
- MFC ([Candida] aaseri [21]): 15.6 mg/L (≈ 34.8 µM)
- MFC (Candida albicans [22]): 15.6 mg/L (≈ 34.8 µM)
- MIC (Candida albicans [23]; MTCC 1637, 24 h): 7.8 mg/L (≈ 17.4 µM)
- MIC (Candida albicans [24]; MTCC 3018, 24 h): 31.2 mg/L (≈ 69.6 µM)
- MIC (Candida albicans [25]): 62.5 mg/L (≈ 139 µM)
- MIC (Raoultella planticola [26]): inactive
- MIC (Candida albicans [27]; MTCC 854, 24 h): 7.8 mg/L (≈ 17.4 µM)
- MFC (Candida albicans [28]; MTCC 3958, 24 h): 62.5 mg/L (≈ 139 µM)
- MIC (Escherichia coli [29]): inactive
- MIC (Micrococcus luteus [30]): inactive
- MIC (Candida albicans [31]): 7.8 mg/L (≈ 17.4 µM)
- MIC (Pseudomonas aeruginosa [32]): inactive
- MIC ([Candida] aaseri [33]): 7.8 mg/L (≈ 17.4 µM)
- MFC (Pichia kudriavzevii [34]): inactive
- MIC (Candida albicans [35]; MTCC 227, 24 h): 15.6 mg/L (≈ 34.8 µM)

SMILES: O=C(NCc1ccccc1)c1nc(-c2ccccc2)c2c(C(F)(F)F)cc(-c3ccccc3)nc2n1
- MFC (Nakaseomyces glabratus [1]): 31.2 mg/L (≈ 64.4 µM)
- MFC (Candida albicans [2]): 62.5 mg/L (≈ 129 µM)
- MFC (Candida albicans [3]): inactive
- MIC (Staphylococcus aureus [4]; MTCC 96, 24 h): 31.2 mg/L (≈ 64.4 µM)
- MFC (Candida albicans [5]): inactive
- IC50 (Bacillus subtilis [36]): Not Active
- MBC (Micrococcus luteus [37]): inactive
- MIC (Candida albicans [6]): 62.5 mg/L (≈ 129 µM)
- MFC (Candida albicans [7]): 62.5 mg/L (≈ 129 µM)
- IC50 (Raoultella planticola [38]): Not Active
- MIC (Staphylococcus aureus [8]): inactive
- MIC (Pichia sporocuriosa [9]): 31.2 mg/L (≈ 64.4 µM)
- MBC (Raoultella planticola [39]): inactive
- MFC (Candida parapsilosis [10]): 62.5 mg/L (≈ 129 µM)
- IC50 (Pseudomonas aeruginosa [40]): Not Active
- MBC (Staphylococcus aureus [41]): 31.2 mg/L (≈ 64.4 µM)
- MFC (Candida albicans [11]): 62.5 mg/L (≈ 129 µM)
- MIC (Nakaseomyces glabratus [12]): 15.6 mg/L (≈ 32.2 µM)
- MIC (Candida albicans [13]): 31.2 mg/L (≈ 64.4 µM)
- MFC (Candida albicans [14]): inactive
- MFC (Candida albicans [15]): inactive
- MIC (Candida parapsilosis [16]): 31.2 mg/L (≈ 64.4 µM)
- MIC (Pichia kudriavzevii [17]; MTCC 3020, 24 h): 15.6 mg/L (≈ 32.2 µM)
- MIC (Bacillus subtilis [18]): inactive
- MFC (Pichia sporocuriosa [19]): 62.5 mg/L (≈ 129 µM)
- MIC (Candida albicans [20]): inactive
- MFC ([Candida] aaseri [21]): 62.5 mg/L (≈ 129 µM)
- MFC (Candida albicans [22]): 62.5 mg/L (≈ 129 µM)
- IC50 (Staphylococcus aureus [42]): 21.6 mg/L (≈ 44.6 µM)
- MBC (Pseudomonas aeruginosa [43]): inactive
- MIC (Candida albicans [23]): inactive
- MIC (Candida albicans [24]): inactive
- MIC (Candida albicans [25]): 62.5 mg/L (≈ 129 µM)
- MIC (Raoultella planticola [26]): inactive
- MIC (Candida albicans [27]): inactive
- MFC (Candida albicans [28]): inactive
- MBC (Staphylococcus aureus [44]): inactive
- MIC (Escherichia coli [29]): inactive
- MIC (Micrococcus luteus [30]): inactive
- MIC (Candida albicans [31]): 31.2 mg/L (≈ 64.4 µM)
- MIC (Pseudomonas aeruginosa [32]): inactive
- MIC ([Candida] aaseri [33]): 31.2 mg/L (≈ 64.4 µM)
- MBC (Bacillus subtilis [45]): inactive
- MFC (Pichia kudriavzevii [34]; MTCC 3020, 24 h): 31.2 mg/L (≈ 64.4 µM)
- MBC (Escherichia coli [46]): inactive
- IC50 (Staphylococcus aureus [47]): Not Active
- MIC (Candida albicans [35]): inactive
